Source: patent publication US10111936B2, “Metal-glycoprotein complexes and photodynamic therapy of immune privileged sites with same” (Theralase Technologies, Inc., priority 2015, dated 2018)

Tests used:
[1] = tested on: RG2 cells (rat glioblastoma tumor model); test: In vivo PDT in rat glioblastoma; settings: ALA mediated PDT in RG2 tumor model; comparison
Procedure: A four-month old rat was injected in the cerebral cortex with 5000 RG2 cells (rat glioblastoma tumor model). Eleven days later, the rat was injected with TLD1433 (5 mg/kg) with human apo-transferrin.
PDT was administered 24 hours later. Light source and fluence: 808 nm wavelength, 300 J/cm^2 delivered at 100 mW. The number of photons absorbed was 2.8×10^17 photons/cm^3.
A five-month old rat was injected in the cerebral cortex with 5000 RG2 cells. Eleven days later, the rat was injected with TLD1433 (5 mg/kg) with human apo-transferrin. PDT was administered 24 hours later. Light source and fluence: 808 nm wavelength, 600 J/cm^2 delivered at 200 mW. The number of photons absorbed was 4.41×10^18 photons/cm^3.

[2] = cited from earlier work
[3] = Absorbance / optical density with transferrin or OPTIFERRIN; assay type: physicochemical; settings: novel absorption in the red (600 nm) and near infrared (800 nm)
Procedure: Transferrin (0.2 mg/mL) was incubated with different photosensitizers (10 uM) and the absorbance spectra were obtained. […] Note that a large relative increase in absorbance may be accompanied by a small absolute difference and vice versa.
The optical density of TLD1433 was measured before and after the addition of either OPTIFERRIN (available from InVitria, a division of Ventria Bioscience) or human apo-transferrin (Sigma). […] This finding highlights the potential of using OPTIFERRIN to increase the efficacy of Theralase's TLD1433 photosensitizer. The increase in optical density will translate to a higher production of reactive oxygen species during PDT treatment. The absorption in red and near infrared light will allow for novel treatment applications for different tumors.

NCC(=O)CCC(=O)O [aminolevulinic acid]
post PDT survival [1]: 8 days

Cn1nnc2c(C(N)=O)ncn2c1=O [temozolomide]
half-life [2]: approximately 1.8 hours

TLD1433-OPTIFERRIN complex: complex of TLD1433 with OPTIFERRIN, a recombinant human transferrin
optical density after addition of OPTIFERRIN [3]: substantial increase in optical density
